Consider one compound from patent publication US20050003388A1, “Calcium independent phospholipase A2upsilon polynucleotides and polypeptides and methods therefor” (priority 2000, published 2005).

Assay [1] has as its target T1, human iPLA2γ (Homo sapiens, UniProt Q9NP80).
T1 sequence (Q9NP80 1-782): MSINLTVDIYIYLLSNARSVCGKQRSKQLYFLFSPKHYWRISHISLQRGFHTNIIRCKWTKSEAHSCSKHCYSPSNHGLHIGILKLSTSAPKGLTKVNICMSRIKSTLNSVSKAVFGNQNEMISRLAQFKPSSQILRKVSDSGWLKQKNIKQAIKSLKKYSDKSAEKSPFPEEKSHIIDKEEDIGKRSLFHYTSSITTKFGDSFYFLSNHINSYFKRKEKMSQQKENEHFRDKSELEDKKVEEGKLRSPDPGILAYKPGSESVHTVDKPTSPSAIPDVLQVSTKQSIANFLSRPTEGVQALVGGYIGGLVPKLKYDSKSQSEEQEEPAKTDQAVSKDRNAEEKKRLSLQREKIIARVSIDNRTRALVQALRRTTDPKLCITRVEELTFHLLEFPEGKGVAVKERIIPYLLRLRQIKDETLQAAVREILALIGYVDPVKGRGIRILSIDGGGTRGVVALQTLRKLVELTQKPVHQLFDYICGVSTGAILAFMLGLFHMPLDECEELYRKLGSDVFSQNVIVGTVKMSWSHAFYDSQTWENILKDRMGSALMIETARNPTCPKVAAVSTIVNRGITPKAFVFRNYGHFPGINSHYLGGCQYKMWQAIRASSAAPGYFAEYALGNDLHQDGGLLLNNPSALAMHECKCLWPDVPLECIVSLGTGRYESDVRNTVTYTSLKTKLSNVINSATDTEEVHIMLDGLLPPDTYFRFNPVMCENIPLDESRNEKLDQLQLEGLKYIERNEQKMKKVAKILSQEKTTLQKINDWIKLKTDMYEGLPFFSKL
Nature of the assay: Inhibition by BEL of phospholipase A2 activity of iPLA2γ in membrane fractions of infected Sf9 cells. It is filed as biochemical. The method, then:
Briefly, Sf9 cells were infected with either wild-type baculovirus or baculovirus encoding human iPLA2γ, as described in Example 5. Cytosolic and membrane fractions of the infected Sf9 cells were prepared as described above. Phospholipase A2 activity was assessed as follows. Membrane fractions from control cells or cells expressing iPLA2γ were incubated with 40 μM L-α-1-palmitoyl-2-[1-^14C]oleoyl phosphatidylcholine in 100 mM Tris-Hac, pH 8.0, containing 1 mM EGTA at 37° C. Aliquots of the reaction were removed at the indicated times, and the amount of [1-^14C]oleic acid released was quantified as described above. Specifically, the release of sn-2-fatty acid from glycero-3-phosphocholine was determined as a function of time.
Briefly, Sf9 cells were infected with either wild-type baculovirus or baculovirus encoding human iPLA2γ, as described in Example 5. Membrane fractions of the infected Sf9 cells were prepared as described above, and then incubated for three minutes at room temperature in 100 mM Tris-HAc, pH 8.0, containing lmM EGTA, with varying concentrations of BEL, or ethanol vehicle, as indicated along the x-axis. L-α-1-palmitoyl-2-[1-^14C]oleoyl phosphatidylcholine (40 μM final concentration) in ethanol was then added to each reaction, followed by incubation at 37° C. for two minutes. Released [1-^14C]oleic acid was quantitated as described above. […]

Assay [2] relates to myocardial cytosolic and membrane-associated iPLA2. The settings on record: irreversible mechanism-based inhibitor; Hazen et al. 1991, Zupan et al., Gross et al. 1993; cited from earlier work.
Assay [3] concerns the target T2, calcium-facilitated phospholipase A2γ (Homo sapiens, UniProt Q9UP65).
T2 sequence (Q9UP65 1-541): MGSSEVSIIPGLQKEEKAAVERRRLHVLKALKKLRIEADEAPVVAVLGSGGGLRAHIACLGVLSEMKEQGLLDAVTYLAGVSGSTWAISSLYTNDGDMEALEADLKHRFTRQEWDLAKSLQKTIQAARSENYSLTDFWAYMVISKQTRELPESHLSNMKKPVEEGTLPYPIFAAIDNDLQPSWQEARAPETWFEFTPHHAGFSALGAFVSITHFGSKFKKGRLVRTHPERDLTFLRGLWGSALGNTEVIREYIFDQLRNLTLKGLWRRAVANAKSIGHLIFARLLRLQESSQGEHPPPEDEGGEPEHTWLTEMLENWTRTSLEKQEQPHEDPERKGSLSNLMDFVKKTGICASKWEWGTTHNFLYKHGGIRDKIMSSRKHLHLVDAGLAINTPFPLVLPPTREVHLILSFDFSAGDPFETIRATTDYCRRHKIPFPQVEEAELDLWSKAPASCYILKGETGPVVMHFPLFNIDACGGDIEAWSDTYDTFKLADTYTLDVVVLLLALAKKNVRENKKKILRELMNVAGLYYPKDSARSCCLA
The following applies: at <50 μM [BEL]; Jenkins et al. 2002; cited from earlier work.

The IC50 is the concentration that gives 50% inhibition. As usually defined, the inhibition is the percentage by which the read-out fell short of the control. Low readings indicate a response near the control, high ones a response far below the control. In assay [1], `O=C1OC(=CBr)CCC1c1cccc2ccccc12` (stereo not shown) [BEL, (E)-6-(bromomethylene)-3-(1-napthalenyl)-2H-tetrahydropyran-2-one] yielded an IC50 of about 3 µM. This compound registered an inhibition at 5 µM in assay [1] (5 μM BEL, preincubation of membranes for three minutes prior to addition of substrate (40 μM POPC), 37° C. two minutes) of about 70%. The “concentrations giving nearly complete inhibition of myocardial cytosolic membrane-associated iPLA2” value in assay [2] is 2 to 5 µM. The “inhibition of calcium-facilitated phospholipase A2γ by BEL” value in assay [3] was “not inhibited”.
